# Measured values from paper PMC8413904 (Pharmacology Research & Perspectives, 2021).
# Experiments:
# [1] = target: T1, GluN1/2C (UniProt P35439+Q14957); assay: TEVC electrophysiology dose–response in xenopus oocytes; assay type: cell-based; design: host or cells: Xenopus oocytes (cRNA injection)
# Description: (§4) NMDAR constructs: cDNA encoding the NMDAR1a subunit (GluN1a) was obtained from Dr. Nakanishi. cDNA encoding the GluN2B (pci_sepGluN2B) was developed initially in the Malinow lab[36] and purchased from Addgene (cat# 23998). cDNA encoding the GluN2C and GluN2D were purchased from GenScript. Mutated GluN1, 2A and 2B cDNA constructs capable of assembling as GluN1/2A/2B triheteromeric (1/2AB) receptors[37] were obtained from Dr. Paoletti (Laboratoire de Neurobiologie, CNRS). […] Plasmids were linearized with NotI (GluN1a) or Avrll (GluN2B), or BstB1 (GluN2C and GluN2D) and transcribed in vitro with T7 (GluN1a, GluN1/2A, GluN2B, GluN2C, & GluN2D) RNA polymerase using the mMessage mMachine transcription kits (Invitrogen by Thermo Fisher Scientific). […]
# (§5) Electrophysiological responses were measured using a standard two‐microelectrode voltage‐clamp workstation [Warner Instruments (Hamden, Connecticut) model OC‐725C] designed to provide a fast clamp of large cells. […] Response magnitude was determined in xenopus oocytes expressing different NMDAR subunits (GluN1/2A, 1/2B, 1/2C, 1/2D, and 1/2A/2B) by the steady plateau response elicited by bath application of different agonist concentrations. […] Statistical significance was determined at the overall alpha level .05, using appropriate statistical methods as described in each figure captions.
# [2] = target: GluN1/2D (UniProt O15399+P35439); assay: as above; assay type: cell-based; design: host or cells: Xenopus oocytes (cRNA injection)
# Description: (§6) NMDAR constructs: cDNA encoding the NMDAR1a subunit (GluN1a) was obtained from Dr. Nakanishi. cDNA encoding the GluN2B (pci_sepGluN2B) was developed initially in the Malinow lab[36] and purchased from Addgene (cat# 23998). cDNA encoding the GluN2C and GluN2D were purchased from GenScript. Mutated GluN1, 2A and 2B cDNA constructs capable of assembling as GluN1/2A/2B triheteromeric (1/2AB) receptors[37] were obtained from Dr. Paoletti (Laboratoire de Neurobiologie, CNRS). […] Plasmids were linearized with NotI (GluN1a) or Avrll (GluN2B), or BstB1 (GluN2C and GluN2D) and transcribed in vitro with T7 (GluN1a, GluN1/2A, GluN2B, GluN2C, & GluN2D) RNA polymerase using the mMessage mMachine transcription kits (Invitrogen by Thermo Fisher Scientific).
# (§7) Stage IV frog oocytes were obtained from Xenopus‐I. NMDAR subunit cRNAs were suspended in nuclease‐free sterile water. GluN1A, GluN2B, GluN2C, GluN2D, and GluN1/2A/2B cRNAs were mixed in a ratio of 1:1–3. 50 nl of the final cRNA mixture was microinjected (40–70 ng total) into the oocyte cytoplasm. Oocytes were incubated in ND‐96 solution at 18^◦C prior to electrophysiological recordings (1–3 days).
# (§8) Electrophysiological responses were measured using a standard two‐microelectrode voltage‐clamp workstation [Warner Instruments (Hamden, Connecticut) model OC‐725C] designed to provide a fast clamp of large cells. The recording buffer contained 116 mM NaCl, 2 mM KCl, 0.3 mM BaCl2, and 5 mM HEPES, pH 7.4. Response magnitude was determined in xenopus oocytes expressing different NMDAR subunits (GluN1/2A, 1/2B, 1/2C, 1/2D, and 1/2A/2B) by the steady plateau response elicited by bath application of different agonist concentrations. […] Response amplitudes for functional NMDARs were generally between 0.1 and 2 μA. […] Dose–response relationships were fit to an appropriate curve‐fitting equation using GraphPad Prism‐7. Nonlinear regression was used to calculate EC50 and/or percentage maximal response. […] Statistical significance was determined at the overall alpha level .05, using appropriate statistical methods as described in each figure captions.
# [3] = target: T2, GluN1/2B (Rattus norvegicus, UniProt P35439+Q00960); assay: as above; assay type: cell-based; design: SEP (super-ecliptic pHluorin); host or cells: Xenopus oocytes (cRNA injection); conditions: 100 µM CNS4; 0.3 µM glutamate + 100 µM glycine; −60 mV; average ± SEM
# T2 sequence (Q00960 27-1482, other chains not shown): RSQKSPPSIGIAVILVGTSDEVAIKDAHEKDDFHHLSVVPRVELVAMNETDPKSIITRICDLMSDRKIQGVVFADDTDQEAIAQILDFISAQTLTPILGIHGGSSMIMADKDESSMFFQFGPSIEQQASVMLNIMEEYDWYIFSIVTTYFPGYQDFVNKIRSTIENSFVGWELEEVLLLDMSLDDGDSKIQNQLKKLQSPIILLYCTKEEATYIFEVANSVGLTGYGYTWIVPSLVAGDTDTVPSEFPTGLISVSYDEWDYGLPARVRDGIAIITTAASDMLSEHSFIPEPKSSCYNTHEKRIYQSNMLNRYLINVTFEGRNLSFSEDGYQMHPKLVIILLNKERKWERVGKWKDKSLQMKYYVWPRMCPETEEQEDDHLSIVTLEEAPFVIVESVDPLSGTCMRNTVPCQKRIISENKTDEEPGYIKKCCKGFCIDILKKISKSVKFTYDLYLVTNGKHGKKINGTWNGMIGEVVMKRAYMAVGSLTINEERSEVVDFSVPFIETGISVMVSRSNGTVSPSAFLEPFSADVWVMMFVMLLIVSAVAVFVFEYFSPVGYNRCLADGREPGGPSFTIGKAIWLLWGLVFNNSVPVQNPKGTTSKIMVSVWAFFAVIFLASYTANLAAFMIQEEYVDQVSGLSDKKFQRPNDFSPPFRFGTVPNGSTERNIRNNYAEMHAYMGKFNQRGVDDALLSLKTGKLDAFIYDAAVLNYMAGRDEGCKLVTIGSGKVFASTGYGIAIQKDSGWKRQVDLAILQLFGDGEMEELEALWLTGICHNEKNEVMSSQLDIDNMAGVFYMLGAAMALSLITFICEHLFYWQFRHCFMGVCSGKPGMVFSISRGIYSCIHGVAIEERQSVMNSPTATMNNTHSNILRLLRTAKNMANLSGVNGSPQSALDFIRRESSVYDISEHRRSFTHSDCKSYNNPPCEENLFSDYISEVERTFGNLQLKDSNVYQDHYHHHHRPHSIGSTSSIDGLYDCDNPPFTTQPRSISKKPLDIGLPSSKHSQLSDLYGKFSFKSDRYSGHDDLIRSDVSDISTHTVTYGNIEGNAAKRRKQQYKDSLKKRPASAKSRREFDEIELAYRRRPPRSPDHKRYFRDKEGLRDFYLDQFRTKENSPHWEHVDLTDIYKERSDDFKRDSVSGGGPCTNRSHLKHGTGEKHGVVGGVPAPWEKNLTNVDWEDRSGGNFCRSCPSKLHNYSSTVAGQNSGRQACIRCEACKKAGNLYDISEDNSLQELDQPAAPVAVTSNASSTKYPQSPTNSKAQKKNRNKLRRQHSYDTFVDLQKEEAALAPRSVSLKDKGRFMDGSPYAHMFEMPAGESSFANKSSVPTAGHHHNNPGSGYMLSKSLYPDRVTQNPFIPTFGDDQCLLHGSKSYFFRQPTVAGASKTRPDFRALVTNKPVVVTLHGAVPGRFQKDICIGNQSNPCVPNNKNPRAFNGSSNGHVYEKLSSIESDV
# Description: as §4, §5
# [4] = target: T3, GluN1/2A (UniProt P35439+Q12879); assay: as above; assay type: cell-based; conditions: 100 µM CNS4, −60 mV, average ± SEM
# T3 sequence (Q12879 23-1464, other chains not shown): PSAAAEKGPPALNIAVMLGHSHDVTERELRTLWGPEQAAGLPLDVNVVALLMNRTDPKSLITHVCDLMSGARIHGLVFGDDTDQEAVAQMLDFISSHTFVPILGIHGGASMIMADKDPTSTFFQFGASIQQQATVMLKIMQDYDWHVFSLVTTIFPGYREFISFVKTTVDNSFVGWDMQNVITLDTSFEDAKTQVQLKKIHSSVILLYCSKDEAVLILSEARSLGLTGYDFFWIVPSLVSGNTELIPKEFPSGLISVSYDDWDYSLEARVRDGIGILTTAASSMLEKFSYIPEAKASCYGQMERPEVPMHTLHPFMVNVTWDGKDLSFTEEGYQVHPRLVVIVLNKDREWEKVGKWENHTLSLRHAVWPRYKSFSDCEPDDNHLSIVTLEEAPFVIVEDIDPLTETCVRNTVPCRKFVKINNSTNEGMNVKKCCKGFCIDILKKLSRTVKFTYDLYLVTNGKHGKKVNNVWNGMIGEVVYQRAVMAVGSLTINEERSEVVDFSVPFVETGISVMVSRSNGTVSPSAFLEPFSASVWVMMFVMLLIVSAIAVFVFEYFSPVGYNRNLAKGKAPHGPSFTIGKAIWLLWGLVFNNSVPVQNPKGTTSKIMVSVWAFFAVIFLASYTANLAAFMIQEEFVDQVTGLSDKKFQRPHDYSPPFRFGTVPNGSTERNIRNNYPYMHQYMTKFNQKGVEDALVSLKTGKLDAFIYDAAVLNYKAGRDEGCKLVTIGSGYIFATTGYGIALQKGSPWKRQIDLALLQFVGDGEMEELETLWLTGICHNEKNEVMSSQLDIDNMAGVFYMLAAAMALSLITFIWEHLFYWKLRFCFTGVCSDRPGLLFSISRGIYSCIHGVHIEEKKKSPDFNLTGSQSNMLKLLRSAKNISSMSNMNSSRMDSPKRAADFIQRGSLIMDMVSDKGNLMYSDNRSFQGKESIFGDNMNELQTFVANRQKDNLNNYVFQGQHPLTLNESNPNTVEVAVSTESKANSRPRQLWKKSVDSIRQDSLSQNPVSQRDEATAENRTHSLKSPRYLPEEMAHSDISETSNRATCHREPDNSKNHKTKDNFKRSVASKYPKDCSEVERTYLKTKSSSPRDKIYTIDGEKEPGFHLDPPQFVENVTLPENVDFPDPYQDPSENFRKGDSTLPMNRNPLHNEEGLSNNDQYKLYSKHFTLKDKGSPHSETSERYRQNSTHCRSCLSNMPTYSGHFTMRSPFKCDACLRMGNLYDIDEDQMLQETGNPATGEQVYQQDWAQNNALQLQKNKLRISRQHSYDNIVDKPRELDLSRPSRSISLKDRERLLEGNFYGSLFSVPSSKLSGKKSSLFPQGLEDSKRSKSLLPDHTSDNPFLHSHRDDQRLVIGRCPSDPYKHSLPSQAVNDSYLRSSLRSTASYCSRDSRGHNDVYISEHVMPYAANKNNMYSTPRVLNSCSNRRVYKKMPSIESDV
# Description: as §6, §7
# Electrophysiological responses were measured using a standard two‐microelectrode voltage‐clamp workstation [Warner Instruments (Hamden, Connecticut) model OC‐725C] designed to provide a fast clamp of large cells. The recording buffer contained 116 mM NaCl, 2 mM KCl, 0.3 mM BaCl2, and 5 mM HEPES, pH 7.4. Response magnitude was determined in xenopus oocytes expressing different NMDAR subunits (GluN1/2A, 1/2B, 1/2C, 1/2D, and 1/2A/2B) by the steady plateau response elicited by bath application of different agonist concentrations. […] Response amplitudes for functional NMDARs were generally between 0.1 and 2 μA. […] Dose–response relationships were fit to an appropriate curve‐fitting equation using GraphPad Prism‐7. Nonlinear regression was used to calculate EC50 and/or percentage maximal response. Curve fittings were done using the following equations as performed in the previous studies[34], [39]: Y = 100/(1 + 10^(LogEC50‐X)) or Y = Bottom + (Top − Bottom)/(1+10^(LogEC50‐X)). Statistical significance was determined at the overall alpha level .05, using appropriate statistical methods as described in each figure captions.
# [5] = target: T3, GluN1/2A; assay: Whole‐cell patch‐clamp electrophysiology in HEK293T cells; assay type: cell-based; design: expressed in transfected cells; host or cells: HEK-293 / HEK293T cells
# Protocol: Whole‐cell patch‐clamp electrophysiology studies were carried out in the HEK‐293 cells, expressing recombinant NMDARs that lack native functional NMDARs.[40], [41], [42] Equal quantity of (1 µg) cDNA for GluN1a, GluN2 (A or B or C or D) subunits were co‐transfected 24–48 h before patch‐clamp electrophysiology assay. […] Cells were carefully washed before performing experiments and were used for the electrophysiology experiments after 24–48 h incubation at 37°C with 5%CO2. The whole‐cell patch‐clamp electrophysiology assay was performed using semi‐automated patch‐clamp equipment, Port‐a‐Patch (Nanion Technologies GmbH). Following are the constituents of various solutions used for patch‐clamp electrophysiology: internal solution [(mM) NaCl 10, EGTA 20, CsF 110, HEPES 10], Mg‐free external (recording) solution [(mM) NaCl 140, KCl 4, CaCl2 2, HEPES 10, D‐GlucoseMonohydrate 5], and Mg‐free seal enhancer solution [(mM) NaCl 80, KCl 3, CaCl2 35, HEPES 10]. Nanion NPC chips with […] resistance were used for the HEK‐293 cell recordings.
# [6] = target: GluN1/2A/2B triheteromeric (1/2AB) receptors (Rattus norvegicus, UniProt P35439+Q00959+Q01097); assay: TEVC electrophysiology dose–response in xenopus oocytes; conditions: 100 µM CNS4, −60 mV, average ± SEM
# Description: as §6, §7, §8
# [7] = tested on: cultured rat brain cerebellar neurons; assay: Dynamic calcium assay (Fluo‐8); assay type: cell-based; conditions: 100 µM CNS4 plus 300 µM NMDA; p < .01 vs 300 µM NMDA (12810)
# Protocol: (§1) All animal experimental procedures and housing have been approved by the Institutional Animal Care and Use Committee (IACUC) protocol #18‐015 of Virginia Tech. Embryonic day 18 (E18) rat brain tissue samples were obtained from adult pregnant SD rats. Rat brain primary cortical, striatal, and cerebellar neurons were cultured on poly‐d‐lysine coated 96‐well plates for 14 days in vitro (DIV14) before using for the experiments. Primary rat neuron culture was performed as previously published.[44] Briefly, each well of a 96 well plate was loaded with 50 000 cells and grown in 200 µl neurobasal media supplemented with B27, glutamax, penicillin, streptomycin. One hundred microliters of media was replaced with fresh media once in 4 days. Eight to thirteen fetus were obtained from each pregnant rat. Brain tissue from these fetus were pooled to obtain the neurons. Cortical, striatal, and cerebellar neuron assays were carried out at different time points.
# (§2) Dynamic calcium assay was carried out, using Fluo‐8 no‐wash kit (abcam, ab112129), as per the manufacturer's instructions with minor modifications to fit with experimental necessities. On DIV14, all 200 μl of media was removed and replaced it with 100 μl of HBSS and 100 μl of Fluo‐8 dye loading solution. The plates were incubated at 37°C for 30 min and at room temperature for 30 min. A volume of 100 µL of test chemicals (3× of desired final concentration) was added to the plates immediately before running the calcium flux assay and read the fluorescence intensity at 490/525 nm (ex/em) using Synergy microplate reader, BioTek, VT. Costar 96‐well clear bottom black side plates were read from the bottom, nine times, with 60 s intervals between each read. Temperature was set at 37°C and reading speed was 100 ms.
# [8] = tested on: cultured rat brain striatal neurons; assay: Dynamic calcium assay (Fluo‐8); assay type: cell-based
# Protocol: as §1, §2
# [9] = tested on: cultured rat brain cerebellar neurons; assay: Na^+ assay (CoroNa green‐AM); assay type: cell-based
# Protocol: as §1
# (§3) For Na^+ assay, DIV14 neurons were washed with HBSS and treated with freshly prepared CoroNa green‐AM dye (ThermoFisher, cat # C36676) and incubated for 45 min in 37°C. Plates were washed twice with HBSS before adding drug solutions dissolved in HBSS, and read at 492/516 nm (ex/em) using a plate reader. RFU values of background control and treatments were plotted to identify the effect of CNS4 on NMDA‐induced Na^+ flux in the neurons.
# [10] = tested on: cultured rat brain striatal neurons; assay: Na^+ assay (CoroNa green‐AM); assay type: cell-based; conditions: 0.3 µM NMDA plus 100 µM CNS4; highest level
# Protocol: as §1, §3
# [11] = target: T2, GluN1/2B; assay: Current–voltage (I–V) relationship, TEVC in xenopus oocytes
# Protocol: (§9) GluN1A, GluN2B, GluN2C, GluN2D, and GluN1/2A/2B cRNAs were mixed in a ratio of 1:1–3. 50 nl of the final cRNA mixture was microinjected (40–70 ng total) into the oocyte cytoplasm. Oocytes were incubated in ND‐96 solution at 18^◦C prior to electrophysiological recordings (1–3 days).
# (§10) After obtaining a steady‐state response to different agonist applications, agonist plus 100 μM CNS4 or agonist plus 40 μM MgCl2 plus 100 μM CNS4 was applied. […] Data points were aligned by least‐square fit by third‐order polynomial equation (Y = B0 + B1*X +B2*X ^2 + B3*X ^3), except for GluN1/2B that needed a fourth‐order polynomial equation.
# [12] = target: T1, GluN1/2C; assay: as above
# Protocol: as §9, §10
# [13] = 100 µM CNS4, 0.3 µM glutamate + 100 µM glycine, −60 mV, average ± SEM
# [14] = higher concentration (100 & 300 µM) of glutamate, almost no effect
# [15] = 0.3 µM glutamate + 100 µM glycine
# [16] = 100 µM glutamate + 100 µM glycine
# [17] = 300 µM glutamate + 100 µM glycine
# [18] = 100 µM CNS4, 100 µM glutamate + 100 µM glycine, −90 to +30 mv
# T1 sequence (Q14957 20-1233, other chains not shown): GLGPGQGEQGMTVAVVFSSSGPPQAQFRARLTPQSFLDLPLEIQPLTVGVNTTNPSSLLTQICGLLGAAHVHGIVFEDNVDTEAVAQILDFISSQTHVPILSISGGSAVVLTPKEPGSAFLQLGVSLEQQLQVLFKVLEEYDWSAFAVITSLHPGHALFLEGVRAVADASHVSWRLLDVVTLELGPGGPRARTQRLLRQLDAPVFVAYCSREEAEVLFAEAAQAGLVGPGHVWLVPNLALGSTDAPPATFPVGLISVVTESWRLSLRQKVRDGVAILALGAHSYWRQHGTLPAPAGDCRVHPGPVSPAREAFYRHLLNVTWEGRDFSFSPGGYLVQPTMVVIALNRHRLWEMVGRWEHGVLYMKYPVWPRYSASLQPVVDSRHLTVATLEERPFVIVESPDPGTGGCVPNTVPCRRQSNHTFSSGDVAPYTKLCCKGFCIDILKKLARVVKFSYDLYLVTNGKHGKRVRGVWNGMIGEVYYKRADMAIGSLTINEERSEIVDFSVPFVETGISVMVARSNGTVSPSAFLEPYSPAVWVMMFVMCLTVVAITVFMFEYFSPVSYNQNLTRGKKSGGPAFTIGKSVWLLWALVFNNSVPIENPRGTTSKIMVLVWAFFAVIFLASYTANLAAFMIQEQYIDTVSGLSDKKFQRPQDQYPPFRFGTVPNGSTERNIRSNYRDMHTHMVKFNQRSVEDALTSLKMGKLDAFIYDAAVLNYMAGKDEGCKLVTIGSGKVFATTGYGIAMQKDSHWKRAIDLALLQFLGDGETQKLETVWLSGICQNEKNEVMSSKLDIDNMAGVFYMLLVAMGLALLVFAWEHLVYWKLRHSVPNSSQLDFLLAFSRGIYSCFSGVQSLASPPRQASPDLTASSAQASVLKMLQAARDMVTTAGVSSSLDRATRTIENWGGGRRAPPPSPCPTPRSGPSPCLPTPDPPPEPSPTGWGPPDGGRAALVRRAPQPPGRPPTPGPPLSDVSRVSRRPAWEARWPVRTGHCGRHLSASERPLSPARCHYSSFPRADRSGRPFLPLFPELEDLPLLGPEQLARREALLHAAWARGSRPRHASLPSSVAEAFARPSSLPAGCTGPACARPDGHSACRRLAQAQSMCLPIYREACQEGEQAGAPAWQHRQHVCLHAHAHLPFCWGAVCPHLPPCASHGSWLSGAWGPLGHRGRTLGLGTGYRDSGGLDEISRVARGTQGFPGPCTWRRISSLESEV
smiles,measurement,setting,value
"O=C(NC(=S)N1CCCCC1c1cccnc1)c1ccc(F)cc1 (centres unmarked) [CNS4, 4‐fluoro‐N‐(2‐(pyridin‐3‐yl)piperidine‐1‐carbonothioyl)benzamide]","current response, agonist alone induced maximum current normalized to 100%",[1]; [13],506.34% ± 52.9%
same,potentiation of receptor current,[1]; [14],< 20%
same,"current response, agonist alone induced maximum current normalized to 100%",[2]; [13],850.35% ± 133.9%
same,potentiation of receptor current,[2]; [14],< 20%
same,"current response, agonist alone induced maximum current normalized to 100%",[3],193.22% ± 21.2%
same,"current response, agonist alone induced maximum current normalized to 100%",[4]; [15],negligible effect
same,"current response, agonist alone induced maximum current normalized to 100%",[4]; [16],186.08% ± 23.5%
same,"current response, agonist alone induced maximum current normalized to 100%",[4]; [17],122.87% ± 9.9%
same,deactivation time constant tau (τ),"[5]; 100 µM CNS4 + Ag (100 µM glutamate + 100 µM glycine), n = 19, Ag alone 710.9 ± 98.27 ms, n = 9, p < .05",1067 ± 104.3 ms
same,effect on maximum inducible current,"[5]; 100 µM CNS4 co‐applied with agonist, 0.3 µM glutamate + 100 µM glycine",significantly potentiated
same,effect on peak current amplitude,"[5]; 100 µM CNS4 co‐applied with agonist, 100 µM glutamate + 100 µM glycine",significantly inhibited
same,"current response, agonist alone induced maximum current normalized to 100%",[6]; [15],264.37% ± 16.9%
same,"current response, agonist alone induced maximum current normalized to 100%",[6]; [16],122.65% ± 1.9%
same,"current response, agonist alone induced maximum current normalized to 100%",[6]; [17],144.47% ± 11.8%
same,"Ca^2+ signal, rfu",[7],14423 rfu
same,"Ca^2+ signal, mean rfu","[8]; 100 µM CNS4 in vehicle, no NMDA, background control 13964, p < .0001",6317 rfu
same,CNS4 induced potentiation of Ca^2+ signal vs 300 µM NMDA,[8]; 100 µM CNS4 plus 300 µM NMDA,86%
same,"Ca^2+ signal, mean rfu","[8]; 100 µM CNS4 plus 300 µM NMDA, p < .0001 vs 300 µM NMDA alone (20964)",39001 rfu
same,Na^+ signal,"[9]; 0.3 µM NMDA plus 100 µM CNS4, highest level",420668 rfu
same,Na^+ signal,"[9]; 100 µM CNS4 alone, Figure 7C",significantly increased
same,Na^+ signal,[10],426039 rfu
same,voltage dependence of effect on current amplitude,[11]; [18],no voltage dependence effect
same,reversal potential,"[11]; agonist (100 µM glutamate + 100 µM glycine) + 40 µM MgCl2 + 100 µM CNS4, without CNS4 −11.66 ± 1.25, p > .05",−6.9 ± 0.74 mv
same,reversal potential,"[11]; agonist (100 µM glutamate + 100 µM glycine) + 100 µM CNS4, absence of Mg^2+, agonist alone −11.66 ± 1.55, p > .05",−10.89 ± 1.9 mv
same,inward current reversal potential,"[12]; 0.3 µM glutamate + 100 µM glycine + CNS4, absence of Mg2+, without CNS4 -86.44± 0.74, p<0.0001, n=7",-75.15±1.33 mv
same,inward current reversal potential,"[12]; 0.3 µM glutamate + 100 µM glycine + CNS4, presence of Mg2+, without CNS4 -88.59± 0.30, p<0.001, n=7",-79.25±1.87 mv
same,voltage dependence of effect on current amplitude,[12]; [18],no voltage dependence effect
same,reversal potential,"[12]; agonist (100 µM glutamate + 100 µM glycine) + 40 µM MgCl2 + 100 µM CNS4, without CNS4 −81.75 ± 1.37, p < .01",−75.53 ± 0.59 mv
same,reversal potential,"[12]; agonist (100 µM glutamate + 100 µM glycine) + 100 µM CNS4, absence of Mg^2+, agonist alone −69.55 ± 1.51, p < .01",−63.64 ± 0.80 mv
